Results taken from ChEMBL document CHEMBL1201862, “PubChem BioAssay data set” (2004).
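48-hour exposure; five concentrations; linearly interpolated endpoints. GI50 is the concentration that inhibits growth by half.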 Active and inactive are the calls of the source. Rule as the data show it: active = GI50 up to about 1.1 µM and inactive = higher.

Legend:
Experiment in all cases: NCI anticancer screen, dose series, 48 h
786-0 = tested on: 786-0
A549 = tested on: A549
SNB-75 = tested on: SNB-75
Malme-3M = tested on: Malme-3M
IGROV-1 = tested on: IGROV-1
NCI-H460 = tested on: NCI-H460
HOP-62 = tested on: HOP-62
TK-10 = tested on: TK-10
RXF 393 = tested on: RXF 393
SF-268 = tested on: SF-268
MOLT-4 = tested on: MOLT-4
CCRF-CEM = tested on: CCRF-CEM
NCI-H23 = tested on: NCI-H23
NCI-H226 = tested on: NCI-H226
OVCAR-3 = tested on: OVCAR-3

Measured: GI50

CC1=N/C(=C\c2cccc([N+](=O)[O-])c2)C(=O)O1
inactive: 786-0 > 100 µM | A549 > 100 µM | SNB-75 15.1 µM | Malme-3M > 100 µM | IGROV-1 > 100 µM | NCI-H460 > 100 µM | HOP-62 > 100 µM | TK-10 > 100 µM | RXF 393 > 100 µM | SF-268 > 100 µM | MOLT-4 > 100 µM | CCRF-CEM > 100 µM | NCI-H23 > 100 µM

CCC1C(=O)OCc2c1cc1n(c2=O)CCC12OCCO2 (stereo not given)
inactive: 786-0 > 100 µM | A549 > 100 µM | SNB-75 > 100 µM | IGROV-1 > 100 µM | NCI-H460 > 100 µM | HOP-62 > 100 µM | TK-10 > 100 µM | SF-268 > 100 µM | MOLT-4 > 100 µM | CCRF-CEM > 100 µM | NCI-H23 > 100 µM | NCI-H226 > 100 µM

Cc1ccc(S(=O)(=O)C2c3nc4ccccc4cc3-c3nc4ccccc4nc32)cc1 (stereo not given)
inactive: 786-0 > 100 µM | A549 > 100 µM | SNB-75 53.8 µM | Malme-3M > 100 µM | IGROV-1 > 100 µM | NCI-H460 > 10 µM | HOP-62 > 100 µM | TK-10 > 100 µM | SF-268 > 100 µM | MOLT-4 > 100 µM | CCRF-CEM > 100 µM | OVCAR-3 > 100 µM | NCI-H23 > 100 µM

O=[N+]([O-])c1ccc(NSc2ccccc2)cc1
inactive: 786-0 16.4 µM | A549 29 µM | Malme-3M > 100 µM | IGROV-1 10.7 µM | NCI-H460 18.3 µM | HOP-62 33.3 µM | TK-10 44.7 µM | RXF 393 20 µM | SF-268 28.2 µM | MOLT-4 10.8 µM | CCRF-CEM 3.03 µM | OVCAR-3 34.8 µM | NCI-H23 45.6 µM

COc1ccc(CCn2c(=O)c3ccccc3n(C)c2=O)cc1
inactive: 786-0 67.1 µM | A549 50.9 µM | SNB-75 25.9 µM | Malme-3M 48 µM | IGROV-1 > 100 µM | NCI-H460 60.1 µM | HOP-62 26.4 µM | TK-10 54.8 µM | SF-268 56.4 µM | MOLT-4 33.8 µM | CCRF-CEM 23.7 µM | OVCAR-3 34.4 µM | NCI-H23 48.6 µM

CC(=O)OCC1OC(OC2C(CSC3OC(COC(C)=O)C(OC(C)=O)C(OC(C)=O)C3OC(C)=O)OC(OC(C)=O)C(OC(C)=O)C2OC(C)=O)C(OC(C)=O)C(OC(C)=O)C1OC(C)=O (stereo not given)
inactive: 786-0 > 100 µM | A549 > 100 µM | SNB-75 > 100 µM | Malme-3M > 100 µM | IGROV-1 > 100 µM | NCI-H460 > 100 µM | HOP-62 > 100 µM | TK-10 > 100 µM | SF-268 > 100 µM | MOLT-4 > 100 µM | CCRF-CEM > 100 µM | OVCAR-3 > 100 µM | NCI-H23 > 100 µM | NCI-H226 47.5 µM

Nc1c(S(=O)(=O)c2ccc(Cl)cc2)c2nc3ccccc3nc2n2ccnc12
inactive: 786-0 36.2 µM | A549 85.9 µM | SNB-75 31.6 µM | Malme-3M > 100 µM | IGROV-1 98.6 µM | NCI-H460 63.4 µM | TK-10 24.9 µM | SF-268 43.1 µM | MOLT-4 > 100 µM | CCRF-CEM 39.4 µM | OVCAR-3 > 100 µM | NCI-H23 > 100 µM | NCI-H226 18.3 µM

Cc1cc(C)nc(Sc2c([N+](=O)[O-])ncn2C)n1
inactive: 786-0 > 100 µM | A549 > 100 µM | SNB-75 > 100 µM | Malme-3M 94.6 µM | IGROV-1 > 100 µM | NCI-H460 > 100 µM | HOP-62 > 100 µM | TK-10 > 100 µM | SF-268 > 100 µM | MOLT-4 69.5 µM | CCRF-CEM 56.9 µM | OVCAR-3 > 100 µM | NCI-H23 > 100 µM | NCI-H226 > 100 µM
